Reference: ChEMBL document CHEMBL4732261, “Design and synthesis of novel (S)-Naproxen hydrazide-hydrazones as potent VEGFR-2 inhibitors and their evaluation in vitro/in vivo breast cancer models” (Bioorg Med Chem, 2021)
The source made the active and inactive calls. The calls are words filed in the database; no cut-off is given here.

Key:
MCF7 = assay: Cytotoxicity against human MCF7 cells assessed as reduction in cell viability after 48 hrs by MTT assay; format: functional, cell-based; conditions: MCF7, 48 h
MDA-MB-231 [1] = assay: Cytotoxicity against human MDA-MB-231 cells assessed as reduction in cell viability after 48 hrs by MTT assay; format: functional, cell-based; conditions: MDA-MB-231, 48 h
MDA-MB-231 [2] = assay: Down regulation of VEGFR2 in human MDA-MB-231 cells at IC50 concentration after 48 hrs by Western blot analysis; format: functional, cell-based
MDA-MB-231 [3] = assay: Induction of apoptosis in human MDA-MB-231 cells assessed as decrease in Bcl2 protein expression at IC50 concentration after 48 hrs by Western blot analysis; format: functional, cell-based
MDA-MB-231 [4] = assay: Induction of cell cycle arrest in human MDA-MB-231 cells assessed as decrease in accumulation of cells at G0/G1 phase after 24 hrs by propidium iodide staining base flow cytometric analysis; format: functional, cell-based; conditions: dose 12.5-50 µM
MDA-MB-231 [5] = assay: Induction of cell cycle arrest in human MDA-MB-231 cells assessed as increase in accumulation of cells at S phase at 12.5 to 50 uM after 24 hrs by propidium iodide staining base flow cytometric analysis relative to control; format: functional; conditions: dose 12.5-50 µM
MDA-MB-231 [6] = assay: Cytotoxicity against human MDA-MB-231 cells assessed as reduction in cell viability at 25 to 400 uM after 48 hrs by MTT assay; format: functional, cell-based; conditions: dose 25-400 µM
MDA-MB-231 [7] = assay: Induction of cell cycle arrest in human MDA-MB-231 cells assessed as accumulation of cells at G2M phase at 12.5 to 50 uM after 24 hrs by propidium iodide staining base flow cytometric analysis relative to control; format: functional; conditions: dose 12.5-50 µM
[8] = Toxicity in Balb/C mouse implanted with EAC cells assessed as mortality at 60 to 120 mg/kg after 14 days; format: organism-based; conditions: in vivo, 336 h, dose 60-120 mg/kg, time 14 day
MDA-MB-231 [9] = assay: Induction of morphological changes in human MDA-MB-231 cells assessed as nuclear condensation at IC50 concentration after 48 hrs by DAPI staining based fluorescent microscopic analysis; format: functional, cell-based
[10] = Toxicity in Balb/C mouse assessed as mortality at 30 to 120 mg/kg after 24 hrs; format: organism-based; conditions: in vivo, dose 30-120 mg/kg
MDA-MB-231 [11] = assay: Induction of cell cycle arrest in human MDA-MB-231 cells assessed as accumulation of cells at G0/G1 phase at 50 uM after 24 hrs by propidium iodide staining base flow cytometric analysis (reference value: 73.2%); format: functional
HEK293 = assay: Cytotoxicity against HEK293 cells assessed as reduction in cell viability after 48 hrs by MTT assay; format: cell-based; conditions: Homo sapiens, HEK293, 48 h
Ehrlich = assay: Antitumour activity against mouse EAC cells implanted in Balb/C mouse assessed as reduction in tumour volume at 60 to 120 mg/kg after 14 days; format: functional, organism-based; conditions: dose 60-120 mg/kg, time 14.0 day
[12] = Cytotoxicity against human OSE cells assessed as reduction in cell viability after 48 hrs by MTT assay; format: cell-based; conditions: HOSE
MDA-MB-231 [13] = assay: Induction of cell cycle arrest in human MDA-MB-231 cells assessed as increase in accumulation of cells at M phase at 12.5 to 50 uM after 24 hrs by propidium iodide staining base flow cytometric analysis; format: functional, cell-based; conditions: dose 12.5-50 µM
MDA-MB-231 [14] = assay: Induction of morphological changes in human MDA-MB-231 cells assessed as DNA fragmentation at IC50 concentration after 48 hrs by DAPI staining based fluorescent microscopic analysis; format: functional, cell-based

| SMILES | IC50 (MCF7) | IC50 (MDA-MB-231 [1]) | also measured |
| --- | --- | --- | --- |
| COc1ccc2cc([C@H](C)C(=O)N/N=C/c3cc(C(F)(F)F)cc(C(F)(F)F)c3)ccc2c1 | 185 µM | 353 µM |  |
| COc1ccc2cc([C@H](C)C(=O)N/N=C/c3cccn3C)ccc2c1 | 352 µM | 129 µM |  |
| COc1ccc2cc([C@H](C)C(=O)N/N=C/c3cccc(OC(F)(F)F)c3)ccc2c1 | > 400 µM | 157 µM |  |
| COc1ccc2cc([C@H](C)C(=O)N/N=C/c3ccc(OC(F)(F)F)cc3)ccc2c1 | > 400 µM | 79.5 µM |  |
| COc1ccc2cc([C@H](C)C(=O)N/N=C/c3ccc(C#N)cc3)ccc2c1 | 60.9 µM | 389 µM |  |
| COc1ccc2cc([C@H](C)C(=O)N/N=C/c3cc(Br)cs3)ccc2c1 | > 400 µM | 183 µM |  |
| COc1cccc2c1C(=O)c1c(O)c3c(c(O)c1C2=O)C[C@@](O)(C(=O)CO)C[C@@H]3O[C@H]1C[C@H](N)[C@H](O)[C@H](C)O1 [DOXORUBICIN] |  | 0.06 µM | Activity (MDA-MB-231 [2]): Active; Activity (MDA-MB-231 [3]): Active |
| CCc1ccc(/C=N/NC(=O)[C@@H](C)c2ccc3cc(OC)ccc3c2)o1 | 260 µM | 178 µM |  |
| COc1ccc2cc([C@H](C)C(=O)N/N=C/c3ccc(C(F)(F)F)cc3)ccc2c1 | 147 µM | 67 µM |  |
| COc1ccc2cc([C@H](C)C(=O)N/N=C/c3ccccc3OC(F)(F)F)ccc2c1 | 59.8 µM | 22.4 µM | Activity (MDA-MB-231 [2]): Active; Activity (MDA-MB-231 [4]): Dose-dependent effect; Activity (MDA-MB-231 [5]): 12.3%; Activity (MDA-MB-231 [6]): Active; Activity (MDA-MB-231 [7]): 14.5%; Activity [8]: Non-Toxic; Activity (MDA-MB-231 [9]): Active; Activity [10]: Non-Toxic; Activity (MDA-MB-231 [11]): 18.2%; IC50 (HEK293): 162 µM; Activity (MDA-MB-231 [3]): Active; Activity (Ehrlich): Active; IC50 [12]: 49 µM; Activity (MDA-MB-231 [13]): Active; Activity (MDA-MB-231 [14]): Active |
| COc1ccc2cc([C@H](C)C(=O)N/N=C/c3ccc([N+](=O)[O-])o3)ccc2c1 | 41.8 µM | > 400 µM |  |
| COc1ccc2cc([C@H](C)C(=O)N/N=C/c3c(F)cccc3F)ccc2c1 | 91.2 µM | 132 µM |  |
| COc1ccc2cc([C@H](C)C(=O)O)ccc2c1 [NAPROXEN] | > 400 µM | > 400 µM | Activity (MDA-MB-231 [9]): inactive; Activity (MDA-MB-231 [14]): inactive |
| COc1ccc2cc([C@H](C)C(=O)N/N=C/c3cccc(C(F)(F)F)c3)ccc2c1 | 69.4 µM | 55.5 µM |  |
